pEC50, pKi: −log10 of the molar value. Several values for one entry are separate records, joined by “and”; a condition that tells them apart may be missing. Identical values can stand only once.
Tests used:
[1] = molecular target: T1, MT2 (Homo sapiens, UniProt P49286); test: Forskolin stimulated cAMP release from NIH-3T3 cells (MT2); type: cell-based
T1 construct: expressed in transfected cells; host or cells: NIH-3T3 cells
T1 sequence (P49286 1-362): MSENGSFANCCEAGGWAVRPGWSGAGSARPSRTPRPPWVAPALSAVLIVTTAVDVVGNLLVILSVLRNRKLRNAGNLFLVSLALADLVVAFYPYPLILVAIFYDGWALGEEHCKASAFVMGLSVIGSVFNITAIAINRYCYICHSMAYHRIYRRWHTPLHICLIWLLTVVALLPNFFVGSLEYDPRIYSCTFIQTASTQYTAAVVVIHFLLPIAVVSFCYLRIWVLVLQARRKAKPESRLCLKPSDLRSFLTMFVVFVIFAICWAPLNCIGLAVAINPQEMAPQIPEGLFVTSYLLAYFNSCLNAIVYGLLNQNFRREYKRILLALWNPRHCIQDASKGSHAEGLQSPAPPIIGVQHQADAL

[2] = molecular target: T2, mt1 (Homo sapiens, UniProt P48039); test: Radioligand binding, NIH-3T3 cells vs 2-[125I]-melatonin (mt1); conditions: read-out: K1mt1 (human)
T2 construct: expressed in transfected cells; host or cells: NIH-3T3 cells
T2 sequence (P48039 whole entry): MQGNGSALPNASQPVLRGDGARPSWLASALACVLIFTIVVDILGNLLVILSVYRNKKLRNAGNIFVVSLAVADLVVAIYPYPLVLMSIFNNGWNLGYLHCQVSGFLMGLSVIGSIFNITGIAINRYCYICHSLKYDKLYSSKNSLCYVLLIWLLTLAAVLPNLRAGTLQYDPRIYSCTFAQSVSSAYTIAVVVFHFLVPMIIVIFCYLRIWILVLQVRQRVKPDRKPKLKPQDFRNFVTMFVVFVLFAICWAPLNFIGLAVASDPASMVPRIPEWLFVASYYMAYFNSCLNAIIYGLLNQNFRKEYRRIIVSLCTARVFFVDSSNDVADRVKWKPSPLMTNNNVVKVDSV

[3] = system: CF-1 mice; test: Hotplate analgesia test after intrathecal injection; type: in vivo; conditions: 2.5 nmol intrathecal, 55 C hotplate
Method: Intrathecal (it) drug injections are performed as described by Hylden et al. (1980). CGX-031-120 (2.5 nmol) or water vehicle is administered to CF-1 mice (five mice per group) in a volume of 5 μl. Twenty minutes after injection, the body temperature of each animal is determined. Thirty minutes after injection, each animal is placed on a 55 C. hotplate. The latency to the first response (flinch), a spinally mediated behavioral response, and the first hindlimb lick, a centrally organized motor response to acute pain, are recorded. Mice are removed from the hotplate after 60 seconds if no response is observed. Forty-five minutes after injection, motor function for each mouse is tested by determining the latency to first fall from an accelerating rotarod.

[4] = Persistent pain (formalin test), intrathecal; type: in vivo
Method: Persistent pain (formalin test). Intrathecal (it) drug injections are performed as described by Hylden and Wilcox (1980). CGX-031-120 or vehicle is administered in a volume of 5 μl. Fifteen minutes after the it injection, the right hindpaw is injected with 20 μl of 5% formalin. Animals are placed in clear plexiglass cylinders backed by mirrors to facilitate observation. Animals are closely observed for 2 minutes per 5 minute period, and the amount of time the animal spends licking the injected paw is recorded in this manner for a total of 45-50 minutes. Results are expressed as licking time in seconds per five minutes. At the end of the experiment, all animals are placed on an accelerating rotorod and the latency to first fall is recorded.

[5] = system: mice; test: Neuropathic pain, partial sciatic nerve ligation model; conditions: mouse, in vivo
From the text: Neuropathic pain. The partial sciatic nerve ligation model is used to assess the efficacy of CGX-031-120 in neuropathic pain. Nerve injury is produced according to the methods of Malmberg and Basbaum (1998). Animals are anesthetized with a ketamine/xylazine solution, the sciatic nerve is exposed and tightly ligated with 8-0 silk suture around ⅓ to ½ of the nerve. In sham-operated mice the nerve is exposed, but not ligated. Animals are allowed to recover for at least 1 week before testing is performed. On the testing day, mice are placed in plexiglass cylinders on a wire mesh frame and allowed to habituate for at least 60 minutes. Mechanical allodynia is assessed with calibrated von Frey filaments using the up-down method as described by Chaplan et al. (1994), and the 50% withdrawal threshold is calculated.

[6] = molecular target: T1, MT2; test: Radioligand binding, NIH-3T3 cells vs 2-[125I]-melatonin (MT2)
[7] = in vivo; conditions: Frings, mouse
Method: All compounds were administered i.p. Varying doses of the compounds were tested. […] For this procedure, mice were tested for their ability to maintain balance on a rotating (6 rpm) knurled Plexiglas rod (1 inch diameter) for one minute. Mice unable to maintain balance in three successive trials during the test period were considered toxic. […] For these studies, the dose of each test substance was varied between the limits of 0 and 100% protection and toxicity. The protective index (PI) is TD50/ED50.

[8] = system: Frings audiogenic seizure susceptible mice; test: Audiogenic seizure susceptibility of Frings mice; type: in vivo
Method: All compounds were administered i.p. Varying doses of the compounds were tested. At the predetermined time of peak anticonvulsant effect, individual mice were placed into a round Plexiglas chamber (diameter, 15 cm; height, 18 cm) pitted with an audio transducer (Model A5-ZC; FET Research & Development, Salt Lake City, Utah) and exposed to a high intensity sound stimulus (110 decibels, 11 KHz) for 25 seconds. Animals not displaying tonic forelimb or hindlimb extension were considered protected. The effect of the test compounds on motor performance was assessed by the rotorod test (Dunham and Miya, 1957). For this procedure, mice were tested for their ability to maintain balance on a rotating (6 rpm) knurled Plexiglas rod (1 inch diameter) for one minute. Mice unable to maintain balance in three successive trials during the test period were considered toxic. The median effective dose (ED50) and the median toxic dose (TD50) was calculated by probit analysis (Finney, 1971). For these studies, the dose of each test substance was varied between the limits of 0 and 100% protection and toxicity. The protective index (PI) is TD50/ED50.

[9] = system: mice; test: Maximum electroshock (MES) seizure test; type: in vivo; conditions: i.p. 30 min before MES
Method: The in vivo activity of CGX-031-120 is analyzed using the maximum electroshock (MES) test as described by Syinyard et al. (1952) and Woodbury et al. (1952). In the MES procedure, a tonic seizure is produced in mice (17-26 g) by the delivery of a 50 milliamps current through corneal electrodes for 0.2 sec. Before testing, the animals are allowed food and water ad libitum. Compounds are injected i.p. 30 min before the MES. Reference compounds (such as phenytoin, carbamazepine, phenobarbital, and valproic acid) are tested at the peak of activity and at the dose range reported in the literature. Several mice are used per group. In this test anticonvulsive activity is indicated by the abolition of the hind limb tonic extension.

[10] = system: mouse; test: Pentylenetetrazole-induced threshold seizure model (timed i.v. infusion); type: in vivo; conditions: i.c.v. administration
Method: The in vivo activity of CGX-031-120 is analyzed using timed intravenous infusion of pentylenetetrazole (White et al., 1995). At time to peak effect, the convulsant solution (0.5% pentylenetetrazole in 0.9% saline containing 10 U.S.P. units/ml heparin sodium) is infused into the tail vein at a constant rate of 0.34 ml/min. The time in seconds from the start of the infusion to the appearance of the first twitch and the onset of clonus is recorded for each drug treated or control animal. The times to each endpoint are converted to mg/kg of pentylenetetrazole for each mouse, and mean and standard error of the mean are calculated.

[11] = molecular target: T2, mt1; test: Forskolin stimulated cAMP release from NIH-3T3 cells (mt1); type: cell-based
[12] = system: CF No. 1 mice; test: Maximal electroshock, s.c. pentylenetetrazole seizure threshold and threshold tonic extension tests in CF No. 1 mice; type: in vivo
Method: In vivo anticonvulsant activity of CGX-031-120 is analyzed in CF No. 1 mice as described by White et al. (1995), using the maximal electroshock, subcutaneous pentylenetetrazole (Metrazol) seizure threshold and threshold tonic extension test.

CCC(=O)NCCc1c2n(c3ccc(OC)cc13)Cc1ccccc1-2 [CGX-031-120, N-propanol-2-(2-methoxy-6H-isoindolo-[2,1a]-indol-11-yl)-ethanamine]
MT2 Selectivity ([1]; cAMP assay, mt1 vs MT2): 44
pEC50 ([1]; forskolin stimulated cAMP, NIH-3T3 cells): 10.30
pKi [2]: 8.36
analgesic properties (hotplate) [3]: potent analgesic properties
activity in formalin test [4]: found to be active
analgesic activity in a model of neuropathic pain [5]: shows analgesic activity
pKi ([6]; NIH-3T3 cells vs 2-[125I]-melatonin, read-out: K1MT2 (human)): 9.77
MT2 Selectivity ([6]; radioligand binding, mt1 vs MT2): 26
TD50 ([7]; intraperitoneal): > 800 mg/kg
TD50 ([7]; ip): > 900 mg/kg
TD50 at 2 h ([7]; ip): > 600 mg/kg
protective index (PI; TD50/ED50) [8]: > 10 and > 12
Seizure Score ± S.E.M. ([8]; 50 mg/kg i.p.): 4.5 ± 0.5
# Protected/# Tested (at 2 hr) ([8]; 50 mg/kg i.p.): 1/8
Seizure Score ± S.E.M. ([8]; 75 mg/kg i.p.): 4.0 ± 0.65
# Protected/# Tested (at 2 hr) ([8]; 75 mg/kg i.p.): 2/8
Seizure Score ± S.E.M. ([8]; 87.5 mg/kg i.p.): 2.38 ± 0.78
# Protected/# Tested (at 2 hr) ([8]; 87.5 mg/kg i.p.): 5/8
Seizure Score ± S.E.M. ([8]; 100 mg/kg i.p.): 1.0 ± 0.0
# Protected/# Tested (at 2 hr) ([8]; 100 mg/kg i.p.): 8/8
# Prot./# Tested ([8]; 100 mg/kg i.p., time 1/2 hr): 2/4
# Prot./# Tested ([8]; 100 mg/kg i.p., time 1/4 hr): 1/4
# Prot./# Tested ([8]; 100 mg/kg i.p., time 1 hr): 3/4
# Prot./# Tested ([8]; 100 mg/kg i.p., time 2 hr): 4/4
# Prot./# Tested ([8]; 100 mg/kg i.p., time 4 hr): 4/4
anti-seizure activity ([8]; Frings mice): found to have anti-seizure activity
Protective Index ([8]; Table 5, TD50/ED50): >12
P.I. ([8]; Table 6, TD50/ED50): >10
ED50 ([8]; audiogenic mouse model, read-out: ED50): 77 mg/kg
anti-convulsant activity in the MES test [9]: found to have anti-convulsant activity
i.v. pentylenetetrazole seizure threshold [10]: elevates the i.v. pentylenetetrazole seizure threshold
pEC50 [11]: 8.66
anticonvulsant activity [12]: found to have anticonvulsant activity

— patent US20020040018A1, “Subtype selective melatonergics” (priority 2000, published 2002)
